Assays:
APOL1 G2 [1] = target: T1, APOL1 G2 (Homo sapiens, UniProt O14791, DEL388-389); assay: APOL1 calcium transport inhibition assay (GCaMP6f calcium influx, FLIPR) in HEK T-REx/GCaMP6f/APOL1 G2 K6.3 cells; type: cell-based; conditions: inhibition of APOL1-mediated calcium influx; geometric mean of at least 2 assay runs, † = single assay run (technical duplicate)
T1 construct: expressed in transfected cells; host or cells: HEK293 T-REx clonal lines: HEK T-REx/GCaMP6f/APOL1 G2 K6.3 in A1, HEK293/T-REx APOL1 G2/clone #2 in A2
T1 sequence (O14791 with tags, fused parts or gaps DEL388-389): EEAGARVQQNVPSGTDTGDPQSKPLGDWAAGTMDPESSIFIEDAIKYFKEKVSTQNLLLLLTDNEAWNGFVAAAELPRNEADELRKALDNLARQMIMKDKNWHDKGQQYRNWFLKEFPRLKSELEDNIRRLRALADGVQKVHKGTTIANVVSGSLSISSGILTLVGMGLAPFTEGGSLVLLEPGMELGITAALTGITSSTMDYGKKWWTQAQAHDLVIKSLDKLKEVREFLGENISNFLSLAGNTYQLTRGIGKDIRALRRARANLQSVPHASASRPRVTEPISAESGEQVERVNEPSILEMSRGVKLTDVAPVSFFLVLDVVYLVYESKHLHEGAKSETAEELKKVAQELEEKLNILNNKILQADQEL
Summary of the method: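 HEK293 cells stably expressing GCaMP6f, APOL1 G2 induced 6 h with doxycycline (20 ng/mL added), then washed into Ca2+-free Tyrode's buffer pH 7.4. Compounds (8-point dose response) preincubated 10 min at room temperature, then Ca2+ injected to 5 mM final and influx read on FLIPR. AC50 reported as geometric mean of runs.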

APOL1 G2 [2] = target: T1, APOL1 G2; assay: Rescue of HEK293 cell death caused by overexpression of APOL1 (CellTiter-Glo luminescence), HEK293/T-REx APOL1 G2/clone #2; type: cell-based; conditions: reversal of cell death caused by overexpression of APOL1; geometric mean of at least 2 assay runs, † = single assay run (technical duplicate)
Summary of the method: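 HEK293/T-REx APOL1 G2 clone #2 cells, 5,000/well, induced with 6 ng/mL doxycycline and exposed to compound (8-point, 3-fold dilutions, 0.5% DMSO) for 17 h at 37 °C. Viability by CellTiter-Glo luminescence; EC50 for reversal of APOL1-induced death from a four-parameter logistic fit, geometric mean of ≥2 runs.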

Structure (SMILES): CN(c1ccc(OC[C@H](O)CN2CCC(c3cccc(Cl)c3)C2(C)C)cc1)S(C)(=O)=O (single isomer, unassigned) [Compound 72, N-(4-((R)-3-((S) or (R)-3-(3-chlorophenyl)-2,2-dimethylpyrrolidin-1-yl)-2-hydroxypropoxy)phe-nyl)-N-methylmethanesulfon-amide]
- AC50 (APOL1 G2 [1]): 314 nM
- EC50 (APOL1 G2 [2]): 1220 nM

Structure (SMILES): CN(c1ccc(OCC2CCCN(CCc3cccc(Cl)c3)C2)cc1)S(C)(=O)=O (single isomer, unassigned) [Compound 8, (S) or (R)—N-(4-((1-(3-chlorophenethyl)piperidin-3-yl)methoxy)phenyl)-N-methylmethanesulfonamide]
- AC50 (APOL1 G2 [1]): 266 nM
- EC50 (APOL1 G2 [2]): 132 nM

Structure (SMILES): CS(=O)(=O)c1ccc(OCC2CN(CCc3cccc(Cl)c3)CCC2O)cc1 (single isomer, unassigned) [Compound 29, (3S,4R) or (3R,4R) or (3S,4S) or (3R,4S)-1-(3-chlorophenethyl)-3-((4-(methylsulfonyl)phenoxy)methyl)piperidin-4-ol]
- AC50 (APOL1 G2 [1]): 1980 nM
- EC50 (APOL1 G2 [2]): > 12200 nM

Structure (SMILES): CS(=O)(=O)c1ccc(OC[C@@H]2CCCN(CCc3cccc(Cl)c3)C2)cc1 [Compound 15, (R)-1-(3-chlorophenethyl)-3-((4-(methylsulfonyl)phenoxy)methyl)piperidine]
- AC50 (APOL1 G2 [1]): 287 nM
- EC50 (APOL1 G2 [2]): 567 nM

Structure (SMILES): CS(=O)(=O)c1ccc(OCC2CN(CCc3cccc(Cl)c3)CCC2O)cc1 (racemic) [Compound 28, rac-cis or trans-1-(3-chlorophenethyl)-3-((4-(methylsulfonyl)phenoxy)methyl)piperidin-4-ol]
- AC50 (APOL1 G2 [1]): 2000 nM
- EC50 (APOL1 G2 [2]): 2340 nM

Structure (SMILES): CS(=O)(=O)c1ccc(OC[C@@H](O)CN2CCCCC2Cc2cccc(Cl)c2)cc1 (single isomer, unassigned) [Compound 64, (2S)-1-((R) or (S)-2-(3-chlorobenzyl)piperidin-1-yl)-3-(4-(methylsulfonyl)phenoxy)propan-2-ol]
- AC50 (APOL1 G2 [1]): 570 nM
- EC50 (APOL1 G2 [2]): 1120 nM

Structure (SMILES): CN(c1ccc(NCC(O)CNCCc2cccc(Cl)c2)cc1)S(C)(=O)=O (stereo not shown) [Compound 105, N-(4-((3-((3-chlorophenethyl)a-mino)-2-hydroxypropyl)ami-no)phenyl)-N-methylmethanesulfon-amide]
- AC50 (APOL1 G2 [1]): 946 nM
- EC50 (APOL1 G2 [2]): > 12400 nM

Structure (SMILES): C[C@@H]1CN(CC(O)c2cccc(C#N)c2)C[C@H]1COc1ccc(S(C)(=O)=O)cc1 (single isomer, unassigned) [Compound 128, 3-[(1R or 1S)-1-hydroxy-2-[(35,4S)-3-[(4-methanesulfonylphenoxy)methyl]-4-methylpyrrolidin-1-ylethyl]benzonitrile]
- AC50 (APOL1 G2 [1]): 349 nM
- EC50 (APOL1 G2 [2]): 366 nM

Structure (SMILES): CS(=O)(=O)c1ccc(OCC2CN(CCc3cccc(Cl)c3)CCC2O)cc1 (single isomer, unassigned) [Compound 32, (3S,4S) or (3R,4S) or (3S,4R) or (3R,4R)-1-(3-chlorophen-ethyl)-3-((4-(methylsulf-onyl)phenoxy)methyl) piperidin-4-ol]
- AC50 (APOL1 G2 [1]): 731 nM
- EC50 (APOL1 G2 [2]): 5770 nM

Structure (SMILES): CN(c1ccc(OCC(C)(O)CNCCc2cccc(Cl)c2)cc1)S(C)(=O)=O (single isomer, unassigned) [Compound 104, (S) or (R)-N-(4-(3-((3-chlorophenethyl)a-mino)-2-hydroxy-2-methylpropoxy)phe-nyl)-N-methylmethanesulfon-amide]
- AC50 (APOL1 G2 [1]): < 382 nM
- EC50 (APOL1 G2 [2]): 1860 nM

Structure (SMILES): C[C@@]1(O)CN(CCc2cccc(Cl)c2)C[C@H]1COc1ccc(S(C)(=O)=O)cc1 (racemic) [Compound 205]
- AC50 (APOL1 G2 [1]): < 236 nM
- EC50 (APOL1 G2 [2]): 1590 nM

Structure (SMILES): COc1ccc(Cl)cc1CCN1CCN[C@H](COc2ccc(S(C)(=O)=O)cc2)C1 [Compound 191, (3S)-1-[2-(5-chloro-2-methoxyphenyl)ethyl]-3-[(4-methanesulfonylphenoxy)methyl]piperazine]
- AC50 (APOL1 G2 [1]): 228 nM
- EC50 (APOL1 G2 [2]): 663 nM

Structure (SMILES): CN(c1ccc(OC[C@@H](O)CN2CCC(c3cccc(Cl)c3)C2)cc1)S(C)(=O)=O (single isomer, unassigned) [Compound 75, N-(4-((S)-3-((S) or (R)-3-(3-chlorophenyl)pyrro-lidin-1-yl)-2-hydroxypropoxy)phe-nyl)-N-methylmethanesulfon-amide]
- AC50 (APOL1 G2 [1]): 558 nM
- EC50 (APOL1 G2 [2]): 1460 nM

Structure (SMILES): C[C@@H]1C[C@H](COc2ccc(S(C)(=O)=O)cc2)CN1CCc1cccc(Cl)c1 [Compound 153, (2R,4S)-1-[2-(3-chlorophenyl)-ethyl]-4-[(4-methanesulfon-ylphenoxy)meth-yl]-2-methyl-pyrrolidine]
- AC50 (APOL1 G2 [1]): 374 nM
- EC50 (APOL1 G2 [2]): 27.8 nM

Structure (SMILES): CN(c1ccc(OCC2CCCN(CCc3cccc(Cl)c3)C2)cc1)S(C)(=O)=O (stereo not shown) [Compound 7, N-(4-((1-(3-chlorophenethyl)piperidin-3-yl)methoxy)phenyl)-N-methylmethanesulfonamide]
- AC50 (APOL1 G2 [1]): < 253 nM
- EC50 (APOL1 G2 [2]): 322 nM

Structure (SMILES): CC(CN1C[C@@H](COc2ccc(S(C)(=O)=O)cc2)[C@H](C)C1)c1cc(Cl)cc(C#N)c1 (stereo partly drawn) [Compound 146, 3-chloro-5-[1-[(3S,4S)-3-[(4-methanesulfon-ylphenoxy)meth-yl]-4-methyl-pyrrolidin-1-yl]-propan-2-yl]-benzonitrile]
- AC50 (APOL1 G2 [1]): 937 nM
- EC50 (APOL1 G2 [2]): 273 nM

Structure (SMILES): Cc1ccc(Cl)cc1CCN1CCN[C@H](COc2ccc(S(C)(=O)=O)cc2)C1 [Compound 197, (3S)-1-[2-(5-chloro-2-methylphenyl)ethyl]-3-[(4-methanesulfonylphenoxy)methyl]piperazine]
- AC50 (APOL1 G2 [1]): 334 nM
- EC50 (APOL1 G2 [2]): 369 nM

Structure (SMILES): CN(c1ccc(OC[C@H](O)CNC2(Cc3cccc(Cl)c3)CCOC2)cc1)S(C)(=O)=O (stereo partly drawn) [Compound 92, N-(4-((2R)-3-((3-(3-chlorobenzyl)tetra-hydrofuran-3-yl)amino)-2-hydroxypropoxy)phe-nyl)-N-methylmethanesulfon-amide]
- AC50 (APOL1 G2 [1]): 682 nM
- EC50 (APOL1 G2 [2]): > 9790 nM

Structure (SMILES): C[C@@H]1CN(CCc2cccc(Cl)c2)C[C@H]1COc1ccc(S(=O)(=O)CCO)cc1 (single isomer, unassigned) [Compound 113, 2-(4-{[(35,4S or 3R,4R)-1-[2-(3-chlorophenyl)ethyl]-4-methylpyrrolidin-3-yl]methoxy}benzene-sulfonyl)ethan-1-ol]
- AC50 (APOL1 G2 [1]): 907 nM
- EC50 (APOL1 G2 [2]): 1070 nM

Structure (SMILES): C[C@@H]1CN(CCc2cc(Cl)cc(C#N)c2)C[C@H]1COc1ccc(S(=O)(=O)C(C)(C)CO)cc1 [Compound 166, 3-chloro-5-{2-[(3S,4S)-3-{[4-(1-hydroxy-2-methylpropane-2-sulfonyl)phenoxy]methyl}-4-methylpyrrolidin-1-yl]ethyl}benzonitrile]
- AC50 (APOL1 G2 [1]): 256 nM
- EC50 (APOL1 G2 [2]): 17.9 nM

Structure (SMILES): CN(c1ccc(OC[C@@H](O)CN2CCC(c3cccc(Cl)c3)C2)cc1)S(C)(=O)=O (single isomer, unassigned) [Compound 76, N-(4-((S)-3-((R) or (S)-3-(3-chlorophenyl)pyrro-lidin-1-yl)-2-hydroxypropoxy)phe-nyl)-N-methylmethanesulfon-amide]
- AC50 (APOL1 G2 [1]): 2830 nM
- EC50 (APOL1 G2 [2]): > 6280 nM

Structure (SMILES): CN(c1ccc(OC[C@@H](O)CN2CCC(c3cccc(Cl)c3)C2)cc1)S(C)(=O)=O (stereo partly drawn) [Compound 74, N-(4-((2S)-3-(3-(3-chlorophenyl)pyrro-lidin-1-yl)-2-hydroxypropoxy)phe-nyl)-N-methylmethanesulfon-amide]
- AC50 (APOL1 G2 [1]): 1290 nM
- EC50 (APOL1 G2 [2]): 2580 nM

Structure (SMILES): CN=S(C)(=O)c1ccc(OC[C@H]2C[C@@H](C)N(CCc3cccc(C#N)c3)C2)cc1 (single isomer, unassigned) [Compound 158, 3-{2-[(2R,4S)-2-methyl-4-({4-[(R or S)methyl(methyli-mino)oxo-λ^6-sulfanyl]phenoxy}methyl)pyrrolidin-1-yl]ethyl}benzonitrile]
- AC50 (APOL1 G2 [1]): 352 nM
- EC50 (APOL1 G2 [2]): 39 nM

Structure (SMILES): CS(=O)(=O)c1ccc(OC[C@@H]2CN(CCc3cc(Cl)ccc3OC(F)F)CCN2)cc1 [Compound 192, (3S)-1-{2-[5-chloro-2-(difluoromethoxy)phenyl]eth-yl}-3-[(4-methanesulfonylphenoxy)methyl]piperazine]
- AC50 (APOL1 G2 [1]): 260 nM
- EC50 (APOL1 G2 [2]): 915 nM

Structure (SMILES): CS(=O)(=O)c1ccc(OCC2CCCCN(CCc3cccc(Cl)c3)C2)cc1 (single isomer, unassigned) [Compound 2, (R) or (S)-1-(3-chlorophenethyl)-3-((4-(methylsulfonyl)phenoxy)methyl)azepane]
- AC50 (APOL1 G2 [1]): 1010 nM
- EC50 (APOL1 G2 [2]): 2960 nM

Structure (SMILES): CN(c1ccc(OC[C@@H](O)CN2CCOC(c3cccc(Cl)c3)C2)cc1)S(C)(=O)=O (single isomer, unassigned) [Compound 82, N-(4-((S)-3-((R) or (S)-2-(3-chlorophenyl)morpho-lino)-2-hydroxypropoxy)phe-nyl)-N-methylmethanesulfon-amide]
- AC50 (APOL1 G2 [1]): 4350 nM
- EC50 (APOL1 G2 [2]): > 24300 nM

Source: patent US20240316038A1, “APOL1 INHIBITORS AND METHODS OF USE” (Maze Therapeutics, Inc., priority 2021, published 2024)
